Measurements reported in US6706728B2, “Systems and methods for treating a mucosal surface” (3M Innovative Properties Company, priority 1999, dated 2004).

Assays:
Assay type in all cases: in vivo, human
[1] = Single dose cervical application study: systemic exposure (PK) of imiquimod in serum
Description: (§1) This was a single dose, randomized, double-blind, placebo controlled dose escalation study which evaluated five doses of imiquimod. 50, 100, 150, 200 and 250 mg of imiquimod in a cream formulation were applied to the cervix for eight hours. Each dose group was composed of 8 subjects (6 active and 2 placebo), with two subjects treated as dose leaders, and the remaining six subjects were treated after an acceptable response by the dose leaders. Safety was assessed by adverse events (AE's), laboratory tests, and colposcopy with photodocumentation of the cervix at pre-dose and 24 hours post-dose, and 48 hours post-dose if required. Systemic exposure (PK) was determined by measuring imiquimod and metabolites through 48 hours post-dose and the PD response was determined by serum analysis for the cytokines: tumor necrosis factor-α (TNF-α), interferon-α (IFN-α), interleukin-1 receptor […] (IL-1RA), interleukin-6 (IL-6), neopterin (NPT) and 2′5′ oligoadenlyate synthetase (2′5′ AS) during dosing and selected times during the 48 hours post-dose. Statistical tests to evaluate AE's and demographics, laboratory tests, vital signs and ECG's were Fisher's Exact, Wilcoxon Rank-Sum and Kruskall Wallis Tests respectively. Cytokine changes between dose groups were compared using Wilcoxon Rank-Sum and changes from baseline were evaluated using Spearman Rank Correlation.

cervix = assay: Single dose cervical application study: safety (adverse events, pelvic and colposcopic examination)
Description: as §1

[2] = tested on: serum cytokines (TNF-α, IFN-α, IL-1RA, IL-6, NPT, 2′5′ AS); assay: Single dose cervical application study: PD response by serum analysis for cytokines
Description: as §1

[3] = single doses up to 250 mg applied to the cervix for 8 hours, healthy volunteers
[4] = serum, 150 mg, 200 mg and 250 mg groups

## CC(C)Cn1cnc2c(N)nc3ccccc3c21 [imiquimod, 1-(2-methylpropyl)-1H-imidazo[4,5-c] quinolin-4-amine]
[1]; single dose 50-250 mg imiquimod cream (Formulation A) applied to the cervix for 8 hours, through 48 hours post-dose, quantifiable >5 ng/ml
  serum levels of imiquimod: ≤ 5 ng/mL
[1]; [3]
  systemic exposure: minimal systemic exposure
cervix; 250 mg dose group
  time to resolution of cervical reactions: ≤ 48 h
cervix; 250 mg dose group, pelvic and colposcopic examination
  subjects experiencing cervical changes of minor small vesicles or smaller ulcer: 2 of 6
cervix; [3]
  overall safety: safe
[2]; cervical application of a dose ≧150 mg
  systemic concentration of certain cytokines: increases
[2]; [4]
  2′5′ AS change from baseline: Significant changes from baseline
  IL-1RA change from baseline: Significant changes from baseline
  NPT (neopterin) change from baseline: Significant changes from baseline
[2]; serum, 250 mg group
  IFN change from baseline: Significant changes from baseline
  IL-6 change from baseline: Significant changes from baseline
